Series [1] addresses C-C chemokine receptor type 5 (Homo sapiens, UniProt P51681). Description: Displacement of labeled MIP-1beta from human CCR5 receptor.
For series [2], the target named is C-C chemokine receptor type 2 (Homo sapiens) (UniProt P41597). In words: Displacement of [125I]MCP1 from human CCR2 at 1000 nM after 30 mins by gamma counting. For orientation: Loss of bound radioactivity is the signal in a displacement assay; it reports binding, not function.
A short description of series [3]: Oral bioavailability in rat at 10 mg/kg. The series is classed as ADME, organism-based. The following applies: in vivo.
Series [4] is described as follows: Half life in rat at 5 mg/kg, iv. The conditions noted are these: in vivo. Also noted: dose 5 mg/kg, route intravenous. The format is ADME, organism-based.
Series [5] can be described thus: Clearance in cynomolgus monkey at […], iv and 10 mg/kg, po. The conditions noted are these: in vivo. The series is classed as ADME, organism-based, Macaca fascicularis.
Series [6] can be described thus: Half life in cynomolgus monkey at […], iv. The series is classed as ADME, organism-based, Macaca fascicularis. Also noted: dose 2.5 mg/kg, route intravenous. The conditions noted are these: in vivo.
The nature of series [7]: Clearance in rat at 5 mg/kg, iv and 10 mg/kg, po. The format is ADME, organism-based. The conditions noted are these: in vivo.
Series [8] can be described thus: AUC in cynomolgus monkey at 10 mg/kg, po. The series is classed as ADME, organism-based, Macaca fascicularis. The arrangement: dose 10 mg/kg, route oral. The conditions noted are these: plasma.
Series [9] can be described thus: Volume of distribution at steady state in rat at 5 mg/kg, iv and 10 mg/kg, po. The format is ADME, organism-based. The following applies: in vivo, read-out: Vdss.
Series [10] is described as follows: Half life in human liver microsomes. The format is ADME, Microsome. A general note: Microsomes from liver hold many membrane-bound enzymes, among them those of drug oxidation.
Series [11] can be described thus: AUC in rat at 10 mg/kg, po. The format is ADME, organism-based. The arrangement: dose 10 mg/kg, route oral. The following applies: plasma.
Series [12] is described as follows: Oral bioavailability in cynomolgus monkey at 10 mg/kg. The format is ADME, organism-based, Macaca fascicularis. The following applies: in vivo.
Series [13] is described as follows: Volume of distribution at steady state in cynomolgus monkey at […], iv and 10 mg/kg, po. The conditions noted are these: in vivo, read-out: Vdss. The format is ADME, organism-based, Macaca fascicularis.

Each structure is given as a SMILES string.

For orientation: IC50 means the concentration needed to halve the response being measured. As usually defined, the inhibition is the change of the read-out against control, counted positive when it falls. In general, bioavailability refers to dose-corrected exposure relative to a reference, in per cent. Usually half-life stands for how long it takes for the measured level to halve. By AUC is commonly meant the area under the concentration-time curve, a measure of exposure.

Sequence of C-C chemokine receptor type 2 (Homo sapiens) (P41597 whole entry, looked up): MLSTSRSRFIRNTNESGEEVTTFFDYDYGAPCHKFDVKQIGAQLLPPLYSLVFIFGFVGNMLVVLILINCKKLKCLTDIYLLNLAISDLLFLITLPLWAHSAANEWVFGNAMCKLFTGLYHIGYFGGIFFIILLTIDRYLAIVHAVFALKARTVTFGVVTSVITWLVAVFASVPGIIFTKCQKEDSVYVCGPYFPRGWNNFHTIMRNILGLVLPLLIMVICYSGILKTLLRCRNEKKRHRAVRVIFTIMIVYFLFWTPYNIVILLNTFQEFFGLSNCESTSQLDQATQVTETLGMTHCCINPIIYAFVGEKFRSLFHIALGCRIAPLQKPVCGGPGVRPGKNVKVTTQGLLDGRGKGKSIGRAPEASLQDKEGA
Sequence of C-C chemokine receptor type 5 (P51681 whole entry): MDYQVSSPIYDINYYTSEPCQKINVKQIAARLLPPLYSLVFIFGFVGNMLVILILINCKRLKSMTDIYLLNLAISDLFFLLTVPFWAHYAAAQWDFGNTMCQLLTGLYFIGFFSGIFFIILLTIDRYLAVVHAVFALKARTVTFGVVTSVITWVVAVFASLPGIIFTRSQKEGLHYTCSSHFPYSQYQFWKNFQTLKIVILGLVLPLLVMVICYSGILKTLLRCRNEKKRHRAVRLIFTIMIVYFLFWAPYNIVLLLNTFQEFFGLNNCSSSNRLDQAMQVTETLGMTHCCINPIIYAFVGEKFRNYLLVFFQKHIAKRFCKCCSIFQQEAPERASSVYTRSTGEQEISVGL

Molecule `COC[C@@H]1COCC[C@@H]1N[C@@H]1CC[C@@](C(=O)N2CCN(c3cccc(C(F)(F)F)c3)CC2)(C(C)C)C1` yielded an IC50 in series [1] of 201 nM.

Consider `CC[C@H]1COCC[C@@H]1N[C@@H]1CC[C@@](C(=O)N2CCN(c3cccc(C(F)(F)F)c3)CC2)(C(C)C)C1`, for which the IC50 in series [1] came to 546 nM.

In [1], `CCO[C@H]1COCC[C@H]1N[C@@H]1CC[C@@](C(=O)N2CCN(c3cccc(C(F)(F)F)c3)CC2)(C(C)C)C1` showed an IC50 of 206 nM.

For the molecule `CC[C@@H]1COCC[C@H]1N[C@@H]1CC[C@@](C(=O)N2CCN(c3cccc(C(F)(F)F)c3)CC2)(C(C)C)C1`, the IC50 in [1] amounted to 1000 nM.

In series [1], `CC(C)[C@]1(C(=O)N2CCN(c3cccc(C(F)(F)F)c3)CC2)CC[C@@H](N[C@H]2CCOC[C@H]2C)C1` registered an IC50 of 77 nM.

Molecule `CC[C@@H]1COCC[C@@H]1N[C@@H]1CC[C@@](C(=O)N2CCN(c3cccc(C(F)(F)F)c3)CC2)(C(C)C)C1` returned an IC50 in series [1] of 18 nM.

For `CC(C)[C@]1(C(=O)N2CCN(c3cccc(C(F)(F)F)c3)CC2)CC[C@@H](N[C@H]2CCOC[C@@H]2C)C1`, the IC50 in [1] came to 370 nM.

The molecule `CC(C)[C@]1(C(=O)N2CCN(c3cccc(C(F)(F)F)c3)CC2)CC[C@@H](N[C@@H]2CCOC[C@H]2C)C1` returned an IC50 in series [1] above 1000 nM.

As to `CO[C@@H]1COCC[C@@H]1N[C@@H]1CC[C@@](C(=O)N2CCN(c3cccc(C(F)(F)F)c3)CC2)(C(C)C)C1`, in series [1], the IC50 is 23 nM.

With `CO[C@@H]1COCC[C@@H]1N[C@@H]1CC[C@](CC(F)(F)F)(C(=O)N2CCN(c3cc(C(F)(F)F)ccn3)CC2)C1`, in series [1], the IC50 amounted to 8.4 nM.

Molecule `CC[C@H]1COCC[C@H]1N[C@@H]1CC[C@@](C(=O)N2CCN(c3cccc(C(F)(F)F)c3)CC2)(C(C)C)C1` came in with an IC50 in series [1] of 312 nM.

Take `CC(C)[C@]1(C(=O)N2CCN(c3cccc(C(F)(F)F)c3)CC2)CC[C@@H](N[C@@H]2CCOC[C@@H]2C)C1`: in series [1], the IC50 is 108 nM.

The molecule `CC(C)[C@]1(C(=O)N2CCN(c3ccc(C(F)(F)F)cc3)CC2)CC[C@@H](NC2CCOCC2)C1` returned an inhibition in series [2] of 40%.

With `CO[C@H]1COCC[C@H]1N[C@@H]1CC[C@@](C(=O)N2CCN(c3cccc(C(F)(F)F)c3)CC2)(C(C)C)C1`, in series [1], the IC50 turned out to be 204 nM.

In the case of `CC(C)[C@]1(C(=O)N2CCN(c3cccc(C(F)(F)F)c3)CC2)CC[C@@H](NC2CCOCC2)C1`, in series [1], the IC50 was determined as 283 nM.

Take `CO[C@@H]1COCC[C@@H]1N[C@@H]1CC[C@@](C(=O)N2CCN(c3cc(C(F)(F)F)ccn3)CC2)(C(C)C)C1`: the bioavailability was 84% in series [3] and 57% in [12]. Moreover, the half-life is 5 h in series [4], 3 h in [6] and 1.55 h in series [10]. Besides, the clearance in [5] is 36.7 mL/min/kg; in [7], 63.3 mL/min/kg. The AUC amounted to 5.3 µM·h in series [8] and 3 µM·h in [11]. Also, the Vd in series [9] came out at 17 L/kg; in series [13] it was 6.2 L/kg.

The molecule `CO[C@@H]1COCC[C@@H]1N[C@@H]1CC[C@@](C(=O)N2CCN(c3cccc(C(F)(F)F)n3)CC2)(C(C)C)C1` came in with an IC50 in series [1] of 26.5 nM.

In series [2], `CC(C)[C@]1(C(=O)N2CCN(c3ccccc3C(F)(F)F)CC2)CC[C@@H](NC2CCOCC2)C1` had an inhibition of 19%.

In series [2], `CC(C)[C@]1(C(=O)N2CCC(c3ccccc3)CC2)CC[C@@H](NC2CCOCC2)C1` showed an inhibition of 0%.

`CCO[C@@H]1COCC[C@@H]1N[C@@H]1CC[C@@](C(=O)N2CCN(c3cccc(C(F)(F)F)c3)CC2)(C(C)C)C1` gave an IC50 in series [1] of 22.5 nM.

`COC[C@H]1COCC[C@H]1N[C@@H]1CC[C@@](C(=O)N2CCN(c3cccc(C(F)(F)F)c3)CC2)(C(C)C)C1` had an IC50 in series [1] of 572 nM.

Values taken from ChEMBL document CHEMBL1681668, “Discovery of INCB10820/PF-4178903, a potent, selective, and orally bioavailable dual CCR2 and CCR5 antagonist” (Bioorg Med Chem Lett, 2011).
